# Assay results published in patent publication US6737383B1, “Herbicidal oxadiazolidines” (priority 1999, dated 2004).
# Key:
# rice = test: Test B flood test rice; format: in vivo, Oryza sativa
# Outline: (§1)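 Each value is a visual injury score relative to controls, with 10 meaning complete control and 0 no effect. Evaluation took place twelve to sixteen days after the 2-leaf-stage plants were treated and kept in the greenhouse.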
# sugar beet = test: Test B pre/postemergence sugar beet; format: in vivo, Beta vulgaris
# Outline: (§2)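 Response is a visual 0-to-10 score relative to untreated plants, where 0 means no effect and 10 means complete control, taken twelve to sixteen days after application. Treatments went onto soil at planting and onto foliage of 1- to 4-leaf plants, using a surfactant-containing non-phytotoxic solvent.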
# smallflower flatsedge = test: Test B flood test smallflower flatsedge; format: in vivo, Cyperus difformis
# Outline: as §1
# wild oat = test: Test B pre/postemergence wild oat; format: in vivo, Avena fatua
# Outline: as §2
# rape = test: Test B pre/postemergence rape; format: in vivo, Brassica napus
# Outline: as §2
# pigweed = test: Test B pre/postemergence pigweed; format: in vivo, Amaranthus retroflexus
# Outline: as §2
# velvetleaf = test: Test B pre/postemergence velvetleaf; format: in vivo, Abutilon theophrasti
# Outline: as §2
# wheat = test: Test B pre/postemergence wheat; format: in vivo, Triticum aestivum
# Outline: as §2
# bamyardgrass = test: Test B flood test barnyardgrass; format: in vivo, Echinochloa crus-galli
# Outline: as §1
# cocklebur = test: Test B pre/postemergence cocklebur; format: in vivo, Xanthium strumarium
# Outline: as §2
# purple nutsedge = test: Test B pre/postemergence purple nutsedge; format: in vivo, Cyperus rotundus
# Outline: as §2
# blackgrass = test: Test B pre/postemergence blackgrass; format: in vivo, Alopecurus myosuroides
# Outline: as §2
# soybean = test: Test B pre/postemergence soybean; format: in vivo, Glycine max
# Outline: as §2
# giant foxtail = test: Test B pre/postemergence giant foxtail; format: in vivo, Setaria faberii
# Outline: as §2
# duck salad = test: Test B flood test duck salad; format: in vivo, Heteranthera limosa
# Outline: as §1
# morningglory = test: Test B pre/postemergence morningglory; format: in vivo, Ipomoea hederacea
# Outline: as §2
# [1] = Postemergence (flood test species), Rate 125 g/ha, scale of 0 to 10 where 0 is no effect and 10 is complete control
# [2] = Rate 62 g/ha, Postemergence section, flood test species, scale of 0 to 10 where 0 is no effect and 10 is complete control
# [3] = Rate 250 g/ha, Postemergence (flood test), scale 0 to 10, 0 is no effect, 10 is complete control
# [4] = Rate 500 g/ha, listed under Postemergence (flood test species), scale 0 to 10
# [5] = Postemergence, Rate 125 g/ha, scale of 0 to 10 where 0 is no effect and 10 is complete control
# [6] = Preemergence, Rate 62 g/ha, scale of 0 to 10 where 0 is no effect and 10 is complete control
# [7] = Preemergence, Rate 125 g/ha, 0 is no effect, 10 is complete control
# [8] = Preemergence, Rate 250 g/ha, scale 0 to 10, 0 is no effect, 10 is complete control
# [9] = Preemergence, Rate 500 g/ha, scale 0 to 10 (0 no effect, 10 complete control)
# [10] = Rate 62 g/ha, Postemergence, scale of 0 to 10 where 0 is no effect and 10 is complete control
# [11] = Rate 250 g/ha, Postemergence, scale 0 to 10, 0 is no effect, 10 is complete control
# [12] = Rate 500 g/ha, Postemergence, scale 0 to 10
smiles,measurement,setting,value
Cc1ccccc1-n1c(=O)on(C(=O)N(c2cccc(F)c2F)C(C)C)c1=O [Compound 171],Rice plant response rating,rice; [1],0
same,Rice plant response rating,rice; [2],0
same,"Plant response rating, Rice",rice; [3],0
same,Rice plant response rating,rice; [4],0
same,Sugarbeets plant response rating,sugar beet; [5],0
same,Sugarbeets plant response rating,sugar beet; [6],0
same,Sugarbeets plant response rating (0 to 10 scale),sugar beet; [7],0
same,Sugarbeets plant response rating,sugar beet; [8],0
same,Sugarbeets plant response rating,sugar beet; [9],0
same,Sugarbeets plant response rating,sugar beet; [10],0
same,"Plant response rating, Sugarbeets",sugar beet; [11],2
same,Sugarbeets plant response rating,sugar beet; [12],2
same,S. Flatsedge plant response rating,smallflower flatsedge; [1],0
same,S. Flatsedge plant response rating,smallflower flatsedge; [2],0
same,"Plant response rating, S. Flatsedge",smallflower flatsedge; [3],0
same,S. Flatsedge plant response rating,smallflower flatsedge; [4],0
same,Wild oats plant response rating,wild oat; [6],0
same,Wild oats plant response rating (0 to 10 scale),wild oat; [7],2
same,Wild oats plant response rating,wild oat; [8],4
same,Wild oats plant response rating,wild oat; [9],5
same,"Plant response rating, Wild oats",wild oat; [11],0
same,Wild oats plant response rating,wild oat; [12],0
same,Rape plant response rating,rape; [5],0
same,Rape plant response rating,rape; [6],0
same,Rape plant response rating (0 to 10 scale),rape; [7],0
same,Rape plant response rating,rape; [9],4
same,Rape plant response rating,rape; [10],0
same,"Plant response rating, Rape",rape; [11],0
same,Rape plant response rating,rape; [12],0
same,Redroot pigweed plant response rating,pigweed; [5],0
same,Redroot pigweed plant response rating,pigweed; [6],0
same,Redroot pigweed plant response rating (0 to 10 scale),pigweed; [7],0
same,Redroot pigweed plant response rating,pigweed; [8],5
same,Redroot pigweed plant response rating,pigweed; [9],6
same,Redroot pigweed plant response rating,pigweed; [10],0
same,"Plant response rating, Redroot pigweed",pigweed; [11],0
same,Redroot pigweed plant response rating,pigweed; [12],5
same,Velvetleaf plant response rating,velvetleaf; [6],0
same,Velvetleaf plant response rating (0 to 10 scale),velvetleaf; [7],0
same,Velvetleaf plant response rating,velvetleaf; [8],0
same,Velvetleaf plant response rating,velvetleaf; [9],0
same,"Plant response rating, Velvetleaf",velvetleaf; [11],0
same,Velvetleaf plant response rating,velvetleaf; [12],3
same,Wheat plant response rating,wheat; [6],0
same,Wheat plant response rating (0 to 10 scale),wheat; [7],0
same,Wheat plant response rating,wheat; [8],0
same,Wheat plant response rating,wheat; [9],0
same,"Plant response rating, Wheat",wheat; [11],0
same,Wheat plant response rating,wheat; [12],0
same,Barnyardgrass plant response rating,bamyardgrass; [1],0
same,Barnyardgrass plant response rating,bamyardgrass; [2],0
same,"Plant response rating, Barnyardgrass",bamyardgrass; [3],0
same,Barnyardgrass plant response rating,bamyardgrass; [4],0
same,Cocklebur plant response rating,cocklebur; [5],0
same,Cocklebur plant response rating,cocklebur; [6],0
same,Cocklebur plant response rating (0 to 10 scale),cocklebur; [7],0
same,Cocklebur plant response rating,cocklebur; [8],0
same,Cocklebur plant response rating,cocklebur; [9],0
same,Cocklebur plant response rating,cocklebur; [10],0
same,"Plant response rating, Cocklebur",cocklebur; [11],3
same,Cocklebur plant response rating,cocklebur; [12],3
same,Nutsedge plant response rating,purple nutsedge; [5],0
same,Nutsedge plant response rating,purple nutsedge; [6],0
same,Nutsedge plant response rating (0 to 10 scale),purple nutsedge; [7],0
same,Nutsedge plant response rating,purple nutsedge; [8],0
same,Nutsedge plant response rating,purple nutsedge; [9],0
same,Nutsedge plant response rating,purple nutsedge; [10],0
same,"Plant response rating, Nutsedge",purple nutsedge; [11],0
same,Nutsedge plant response rating,purple nutsedge; [12],0
same,Blackgrass plant response rating,blackgrass; [5],0
same,Blackgrass plant response rating,blackgrass; [6],0
same,Blackgrass plant response rating (0 to 10 scale),blackgrass; [7],0
same,Blackgrass plant response rating,blackgrass; [8],0
same,Blackgrass plant response rating,blackgrass; [9],2
same,Blackgrass plant response rating,blackgrass; [10],0
same,"Plant response rating, Blackgrass",blackgrass; [11],0
same,Blackgrass plant response rating,blackgrass; [12],0
same,Soybean plant response rating,soybean; [5],1
same,Soybean plant response rating,soybean; [6],0
same,Soybean plant response rating (0 to 10 scale),soybean; [7],0
same,Soybean plant response rating,soybean; [8],0
same,Soybean plant response rating,soybean; [9],0
same,Soybean plant response rating,soybean; [10],1
same,"Plant response rating, Soybean",soybean; [11],1
same,Soybean plant response rating,soybean; [12],3
same,Giant foxtail plant response rating,giant foxtail; [5],0
same,Giant foxtail plant response rating,giant foxtail; [6],5
same,Giant foxtail plant response rating (0 to 10 scale),giant foxtail; [7],7
same,Giant foxtail plant response rating,giant foxtail; [8],10
same,Giant foxtail plant response rating,giant foxtail; [9],10
same,Giant foxtail plant response rating,giant foxtail; [10],0
same,"Plant response rating, Giant foxtail",giant foxtail; [11],0
same,Giant foxtail plant response rating,giant foxtail; [12],0
same,Ducksalad plant response rating,duck salad; [1],0
same,Ducksalad plant response rating,duck salad; [2],0
same,"Plant response rating, Ducksalad",duck salad; [3],0
same,Ducksalad plant response rating,duck salad; [4],0
same,Morningglory plant response rating,morningglory; [5],1
same,Morningglory plant response rating,morningglory; [6],0
same,Morningglory plant response rating (0 to 10 scale),morningglory; [7],0
same,Morningglory plant response rating,morningglory; [8],0
same,Morningglory plant response rating,morningglory; [9],0
same,Morningglory plant response rating,morningglory; [10],0
same,"Plant response rating, Morningglory",morningglory; [11],2
same,Morningglory plant response rating,morningglory; [12],2
